Data: patent publication US11802111B2, “Cyclobutyl amide monoacylglycerol lipase modulators” (Janssen Pharmaceutica NV, priority 2020, dated 2023)
pIC50: −log10 of the molar value.

Target: human MGL from HeLa cells (Homo sapiens (Human), UniProt Q99685)
Test: MGL in vitro activity assay ([glycerol-1,3-3H]-oleoyl glycerol hydrolysis, activated carbon filtration)
Assay type: biochemical
Conditions: 300 nM [Glycerol-1,3-3H]-oleoyl glycerol, one hour
In short: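 Activity measured as tritium in the flow-through after activated carbon filtration of a 1 h reaction containing 300 nM 3H-oleoyl glycerol, compound and HeLa-derived human MGL. Compounds screened at 10 μM; IC50 series start at an empirically chosen highest concentration.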

human MGL from HeLa cells, sequence (Q99685 whole entry): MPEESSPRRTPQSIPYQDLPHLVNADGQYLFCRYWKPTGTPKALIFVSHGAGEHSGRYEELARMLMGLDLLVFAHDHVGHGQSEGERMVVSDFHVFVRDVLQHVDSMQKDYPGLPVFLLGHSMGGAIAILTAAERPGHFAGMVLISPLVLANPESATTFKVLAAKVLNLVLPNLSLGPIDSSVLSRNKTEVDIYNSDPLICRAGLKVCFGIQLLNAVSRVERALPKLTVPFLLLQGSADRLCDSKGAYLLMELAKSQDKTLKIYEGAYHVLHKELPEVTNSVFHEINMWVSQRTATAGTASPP

`Cc1ccc(OC2CCC3(CC2)CN(C(=O)[C@H]2C[C@@](C)(O)C2)C3)nc1C` [Example 428, (7-((5,6-Dimethylpyridin-2-yl)oxy)-2-azaspiro[3.5]nonan-2-yl)((1s,3s)-3-hydroxy-3-methylcyclobutyl)methanone] gave a pIC50 of 7.33.
For `Cc1ccc(C)c(OC2CCC3(CC2)CN(C(=O)[C@H]2C[C@@](C)(O)C2)C3)n1` [Example 429, (7-((3,6-Dimethylpyridin-2-yl)oxy)-2-azaspiro[3.5]nonan-2-yl)((1s,3 s)-3-hydroxy-3-methylcyclobutyl)methanone], the pIC50 was 7.72.
Work on `Cc1cnc(OC2CCC3(CC2)CN(C(=O)[C@H]2C[C@@](C)(O)C2)C3)c(C)c1` [Example 430, (7-((3,5-Dimethylpyridin-2-yl)oxy)-2-azaspiro[3.5]nonan-2-yl)((1s,3s)-3-hydroxy-3-methylcyclobutyl)methanone] yielded a pIC50 of 7.92.
`Cc1ccc(F)c(OC2CCC3(CC2)CN(C(=O)[C@H]2C[C@@](C)(O)C2)C3)n1` [Example 431, (7-((3-Fluoro-6-methylpyridin-2-yl)oxy)-2-azaspiro[3.5]nonan-2-yl)((1s,3s)-3-hydroxy-3-methylcyclobutyl)methanone] was tested, and the pIC50 was 7.01.
In the case of `Cc1cnc(OC2CCC3(CC2)CN(C(=O)[C@H]2C[C@@](C)(O)C2)C3)c(F)c1` [Example 432, (7-((3-Fluoro-5-methylpyridin-2-yl)oxy)-2-azaspiro[3.5]nonan-2-yl)((1s,3s)-3-hydroxy-3-methylcyclobutyl)methanone], the pIC50 was 7.15.
For `CCc1cnc(OC2CCC3(CC2)CN(C(=O)[C@H]2C[C@@](C)(O)C2)C3)c(F)c1` [Example 433, (7-((5-Ethyl-3-fluoropyridin-2-yl)oxy)-2-azaspiro[3.5]nonan-2-yl)((1s,3s)-3-hydroxy-3-methylcyclobutyl)methanone], the pIC50 was 7.85.
For `Cc1nc(OC2CCC3(CC2)CN(C(=O)[C@H]2C[C@@](C)(O)C2)C3)ccc1Cl` [Example 434, (7-((5-Chloro-6-methylpyridin-2-yl)oxy)-2-azaspiro[3.5]nonan-2-yl)((1s,3s)-3-hydroxy-3-methylcyclobutyl)methanone], the pIC50 was 7.60.
`Cc1ccc(Cl)c(OC2CCC3(CC2)CN(C(=O)[C@H]2C[C@@](C)(O)C2)C3)n1` [Example 435, (7-((3-Chloro-6-methylpyridin-2-yl)oxy)-2-azaspiro[3.5]nonan-2-yl)((1s,3s)-3-hydroxy-3-methylcyclobutyl)methanone] gave a pIC50 of 8.08.
In the case of `Cc1cnc(OC2CCC3(CC2)CN(C(=O)[C@H]2C[C@@](C)(O)C2)C3)c(Cl)c1` [Example 436, (7-((3-Chloro-5-methylpyridin-2-yl)oxy)-2-azaspiro[3.5]nonan-2-yl)((1s,3s)-3-hydroxy-3-methylcyclobutyl)methanone], the pIC50 was 7.89.
`Cc1cc(Cl)cnc1OC1CCC2(CC1)CN(C(=O)[C@H]1C[C@@](C)(O)C1)C2` [Example 437, (7-((5-Chloro-3-methylpyridin-2-yl)oxy)-2-azaspiro[3.5]nonan-2-yl)((1s,3s)-3-hydroxy-3-methylcyclobutyl)methanoneo] gave a pIC50 of 8.43.
In the case of `Cc1nc(OC2CCC3(CC2)CN(C(=O)[C@H]2C[C@@](C)(O)C2)C3)ccc1C(F)F` [Example 438, (7-((5-(Difluoromethyl)-6-methylpyridin-2-yl)oxy)-2-azaspiro[3.5]nonan-2-yl)((1s,3s)-3-hydroxy-3-methylcyclobutyl)methanone], the pIC50 was 7.49.
For `CCc1ccc(OC2CCC3(CC2)CN(C(=O)[C@H]2C[C@@](C)(O)C2)C3)nc1C(F)F` [Example 439, (7-((6-(Difluoromethyl)-5-ethylpyridin-2-yl)oxy)-2-azaspiro[3.5]nonan-2-yl)((1s,3s)-3-hydroxy-3-methylcyclobutyl)methanone], the pIC50 was 8.74.
`CCc1nc(OC2CCC3(CC2)CN(C(=O)[C@H]2C[C@@](C)(O)C2)C3)ccc1C(F)F` [Example 440, (7-((5-(Difluoromethyl)-6-ethylpyridin-2-yl)oxy)-2-azaspiro[3.5]nonan-2-yl)((1s,3s)-3-hydroxy-3-methylcyclobutyl)methanone] was tested, and the pIC50 was 7.82.
Work on `CCc1ccc(C(F)F)c(OC2CCC3(CC2)CN(C(=O)[C@H]2C[C@@](C)(O)C2)C3)n1` [Example 441, (7-((3-(Difluoromethyl)-6-ethylpyridin-2-yl)oxy)-2-azaspiro[3.5]nonan-2-yl)((1s,3s)-3-hydroxy-3-methylcyclobutyl)methanone] yielded a pIC50 of 7.85.
For `Cc1cc(OC2CCC3(CC2)CN(C(=O)[C@H]2C[C@@](C)(O)C2)C3)ncc1C(F)(F)F` [Example 442, ((1s,3s)-3-Hydroxy-3-methylcyclobutyl)(7-((4-methyl-5-(trifluoromethyl)pyridin-2-yl)oxy)-2-azaspiro[3.5]nonan-2-yl)methanone], the pIC50 was 8.02.
Molecule `Cc1ccc(C(F)(F)F)c(OC2CCC3(CC2)CN(C(=O)[C@H]2C[C@@](C)(O)C2)C3)n1` [Example 443, ((1s,3s)-3-Hydroxy-3-methylcyclobutyl)(7-((6-methyl-3-(trifluoromethyl)pyridin-2-yl)oxy)-2-azaspiro[3.5]nonan-2-yl)methanone] has a pIC50 of 7.77.
`Cc1cc(C(F)(F)F)cnc1OC1CCC2(CC1)CN(C(=O)[C@H]1C[C@@](C)(O)C1)C2` [Example 446, ((1s,3s)-3-Hydroxy-3-methylcyclobutyl)(7-((3-methyl-5-(trifluoromethyl)pyridin-2-yl)oxy)-2-azaspiro[3.5]nonan-2-yl)methanone] gave a pIC50 of 9.12.
`Cc1cc(C(F)(F)F)cc(OC2CCC3(CC2)CN(C(=O)[C@H]2C[C@@](C)(O)C2)C3)n1` [Example 447, ((1s,3s)-3-Hydroxy-3-methylcyclobutyl)(7-((6-methyl-4-(trifluoromethyl)pyridin-2-yl)oxy)-2-azaspiro[3.5]nonan-2-yl)methanone] gave a pIC50 of 6.96.
`Cc1nc(OC2CCC3(CC2)CN(C(=O)[C@H]2C[C@@](C)(O)C2)C3)ccc1C(F)(F)F` [Example 448, ((1s,3s)-3-Hydroxy-3-methylcyclobutyl)(7-((6-methyl-5-(trifluoromethyl)pyridin-2-yl)oxy)-2-azaspiro[3.5]nonan-2-yl)methanone] gave a pIC50 of 8.62.
Molecule `Cc1ccc(C(F)(F)F)nc1OC1CCC2(CC1)CN(C(=O)[C@H]1C[C@@](C)(O)C1)C2` [Example 449, ((1s,3s)-3-Hydroxy-3-methylcyclobutyl)(7-((3-methyl-6-(trifluoromethyl)pyridin-2-yl)oxy)-2-azaspiro[3.5]nonan-2-yl)methanone] has a pIC50 of 8.07.
`CCc1ccc(OC2CCC3(CC2)CN(C(=O)[C@H]2C[C@@](C)(O)C2)C3)nc1C(F)(F)F` [Example 450, (7-((5-Ethyl-6-(trifluoromethyl)pyridin-2-yl)oxy)-2-azaspiro[3.5]nonan-2-yl)((1s,3s)-3-hydroxy-3-methylcyclobutyl)methanone] showed a pIC50 of 8.54.
`Cc1ccc(OC2CCC3(CC2)CN(C(=O)[C@H]2C[C@@](C)(O)C2)C3)nc1C(F)(F)F` [Example 451, ((1s,3s)-3-Hydroxy-3-methylcyclobutyl)(7-((5-methyl-6-(trifluoromethyl)pyridin-2-yl)oxy)-2-azaspiro[3.5]nonan-2-yl)methanone] showed a pIC50 of 8.09.
`CC[C@]1(O)C[C@@H](C(=O)N2CC3(CCC(Oc4ccc(C)c(C(F)(F)F)n4)CC3)C2)C1` [Example 452, ((1r,3s)-3-Ethyl-3-hydroxycyclobutyl)(7-((5-methyl-6-(trifluoromethyl)pyridin-2-yl)oxy)-2-azaspiro[3.5]nonan-2-yl)methanone] gave a pIC50 of 7.70.
Work on `Cc1ccc(OC2CCC3(CC2)CN(C(=O)[C@H]2C[C@](O)(C(F)F)C2)C3)nc1C(F)(F)F` [Example 453, ((1s,3s)-3-(Difluoromethyl)-3-hydroxycyclobutyl)(7-((5-methyl-6-(trifluoromethyl)pyridin-2-yl)oxy)-2-azaspiro[3.5]nonan-2-yl)methanone] yielded a pIC50 of 7.72.
For `CCc1ccc(OC2CCC3(CC2)CN(C(=O)[C@H]2C[C@@](C)(O)C2)C3)nc1OC` [Example 454, (7-((5-Ethyl-6-methoxypyridin-2-yl)oxy)-2-azaspiro[3.5]nonan-2-yl)((1s,3s)-3-hydroxy-3-methylcyclobutyl)methanone], the pIC50 was 8.66.
In the case of `COc1nc(OC2CCC3(CC2)CN(C(=O)[C@H]2C[C@@](C)(O)C2)C3)ccc1C1CC1` [Example 455, (7-((5-Cyclopropyl-6-methoxypyridin-2-yl)oxy)-2-azaspiro[3.5]nonan-2-yl)((1s,3s)-3-hydroxy-3-methylcyclobutyl)methanone], the pIC50 was 8.89.
Work on `COc1nc(OC2CCC3(CC2)CN(C(=O)[C@H]2C[C@@](C)(O)C2)C3)ccc1C` [Example 456, ((1s,3s)-3-Hydroxy-3-methylcyclobutyl)(7-((6-methoxy-5-methylpyridin-2-yl)oxy)-2-azaspiro[3.5]nonan-2-yl)methanone] yielded a pIC50 of 7.72.
Work on `C[C@]1(O)C[C@@H](C(=O)N2CC3(CCC(Oc4ncc(C(F)(F)F)cc4F)CC3)C2)C1` [Example 457, (7-((3-Fluoro-5-(trifluoromethyl)pyridin-2-yl)oxy)-2-azaspiro[3.5]nonan-2-yl)((1s,3s)-3-hydroxy-3-methylcyclobutyl)methanone] yielded a pIC50 of 7.89.
`COc1nc(OC2CCC3(CC2)CN(C(=O)[C@H]2C[C@@](C)(O)C2)C3)ccc1C(F)(F)F` [Example 458, ((1s,3s)-3-Hydroxy-3-methylcyclobutyl)(7-((6-methoxy-5-(trifluoromethyl)pyridin-2-yl)oxy)-2-azaspiro[3.5]nonan-2-yl)methanone] was tested, and the pIC50 was 9.26.
Molecule `CCOc1nc(OC2CCC3(CC2)CN(C(=O)[C@H]2C[C@@](C)(O)C2)C3)ccc1C(F)(F)F` [Example 459, (7-((6-Ethoxy-5-(trifluoromethyl)pyridin-2-yl)oxy)-2-azaspiro[3.5]nonan-2-yl)((1s,3s)-3-hydroxy-3-methylcyclobutyl)methanone] has a pIC50 of 9.66.
`COc1cc(OC2CCC3(CC2)CN(C(=O)[C@H]2C[C@@](C)(O)C2)C3)ncc1Cl` [Example 460, (7-((5-Chloro-4-methoxypyridin-2-yl)oxy)-2-azaspiro[3.5]nonan-2-yl)((1s,3s)-3-hydroxy-3-methylcyclobutyl)methanone] showed a pIC50 of 6.85.
